Laboratory results: paper PMC4489319 (ACS Infectious Diseases, 2015)

T1: ChsE4 (Rv3504, formerly FadE26), N-terminal His6 tag (Mycobacterium tuberculosis H37Rv, UniProt I6YCA3 1-400)
T1 sequence: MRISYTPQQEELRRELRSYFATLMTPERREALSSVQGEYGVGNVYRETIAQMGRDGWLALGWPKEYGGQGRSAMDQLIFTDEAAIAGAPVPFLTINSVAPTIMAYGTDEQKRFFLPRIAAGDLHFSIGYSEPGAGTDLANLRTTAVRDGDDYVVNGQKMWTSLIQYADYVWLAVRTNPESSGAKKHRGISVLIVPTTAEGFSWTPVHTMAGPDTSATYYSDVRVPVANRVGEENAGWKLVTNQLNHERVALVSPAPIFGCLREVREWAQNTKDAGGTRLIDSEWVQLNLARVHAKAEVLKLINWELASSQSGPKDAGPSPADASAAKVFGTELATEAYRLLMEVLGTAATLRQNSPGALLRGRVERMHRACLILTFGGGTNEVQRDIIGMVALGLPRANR


Legend:
ChsE4-ChsE5 = ChsE4-ChsE5 (Mycobacterium tuberculosis, UniProt I6YCA3)
[1] = target: T1, ChsE4 (Rv3504, formerly FadE26), …; assay: AUC + other: LC/UV/MS

Row | Molecule | KM (ChsE4-ChsE5) [µM] | binding result [1]
1 | CC(CCC[C@@H](C)[C@H]1CC[C@H]2[C@@H]3CCC4=CC(=O)CC[C@]4(C)[C@H]3CC[C@]12C)C(=O)SCCNC(=O)CCNC(=O)[C@H](O)C(C)(C)COP(=O)(O)OP(=O)(O)OC[C@H]1O[C@@H](n2cnc3c(N)ncnc32)[C@H](O)[C@@H]1OP(=O)(O)O (some centres unmarked) [3-OCS-CoA] | 20 ± 2.7 | –
2 | ChsE5 (Rv3505, formerly FadE27) (enzyme) MDFTTTEAAQDLGGLVDTIVDAVCTPEHQRELDKLEQRFDRELWRKLIDAGILSSAAPESLGGDGFGVLEQVAVLVALGHQLAAVPYLESVVLAAGALARFGSPELQQGWGVSAVSGDRILTVALDGEMGEGPVQAAGTGHGYRLTGTRTQVGYGPVADAFLVPAETDSGAAVFLVAAGDPGVAVTALATTGLGSVGHLELNGAKVDAARRVGGTDVAVWLGTLSTLSRTAFQLGVLERGLQMTAEYARTREQFDRPIGSFQAVGQRLADGYIDVKGLRLTLTQAAWRVAEDSLASRECPQPADIDVATAGFWAAEAGHRVAHTIVHVHGGVGVDTDHPVHRYFLAAKQTEFALGGATGQLRRIGRELAETPA | – | binds
